In US10206394B2, “Herbicidal compounds” (Syngenta Participations AG, priority 2014, dated 2019):
Read-outs that look alike come from different tables or passages of the source.

Tests used:
Assay in all cases: Glasshouse assay for herbicidal activity (pre- and post-emergence), percentage phytotoxicity
Assay type in all cases: in vivo
Avena fatua (AVEFA) = settings: Avena fatua
In short: (§1)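 Percent injury was estimated by eye on a scale where 0% means no damage and 100% complete damage. Ratings came 15 DAA post-emergence and 20 DAA pre-emergence, with plants held under 16 h light and 65% humidity at 24/18 °C or 20/16 °C day/night.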

[1] = test system: Echinochloa crus-galli (ECHCG); settings: Echinochloa crus-galli
In short: as §1

[2] = test system: Alopecurus myosuroides (ALOMY); settings: Alopecurus myosuroides
In short: as §1

Lolium perenne (LOLPE) = settings: Lolium perenne
In short: as §1

[3] = post-emergence, 360 h, POST-emergence, rate 250 g/ha, visual score 15 DAA (100%=total damage, 0%=no damage), read-out: Post-emergence herbicidal activity (percentage phytotoxicity) AVEFA POST
[4] = pre-emergence, 480 h, PRE-emergence, rate 250 g/ha, visual score 20 DAA (100%=total damage, 0%=no damage), read-out: Pre-emergence herbicidal activity (percentage phytotoxicity) AVEFA PRE
[5] = post-emergence, 360 h, POST-emergence, rate 250 g/ha, visual score 15 DAA (100%=total damage, 0%=no damage), read-out: Post-emergence herbicidal activity (percentage phytotoxicity) ECHCG POST
[6] = pre-emergence, 480 h, PRE-emergence, rate 250 g/ha, visual score 20 DAA (100%=total damage, 0%=no damage), read-out: Pre-emergence herbicidal activity (percentage phytotoxicity) ECHCG PRE
[7] = post-emergence, 360 h, POST-emergence, rate 250 g/ha, visual score 15 DAA (100%=total damage, 0%=no damage), read-out: Post-emergence herbicidal activity (percentage phytotoxicity) ALOMY POST
[8] = pre-emergence, 480 h, PRE-emergence, rate 250 g/ha, visual score 20 DAA (100%=total damage, 0%=no damage), read-out: Pre-emergence herbicidal activity (percentage phytotoxicity) ALOMY PRE
[9] = post-emergence, 360 h, POST-emergence, rate 250 g/ha, visual score 15 DAA (100%=total damage, 0%=no damage), read-out: Post-emergence herbicidal activity (percentage phytotoxicity) LOLPE POST
[10] = pre-emergence, 480 h, PRE-emergence, rate 250 g/ha, visual score 20 DAA (100%=total damage, 0%=no damage), read-out: Pre-emergence herbicidal activity (percentage phytotoxicity) LOLPE PRE
[11] = post-emergence, 360 h, Rate 250 g/ha, post-emergence, assessed visually 15 DAA, 100%=total damage, 0%=no damage, read-out: Post-emergence herbicidal activity (percentage phytotoxicity) AVEFA POST
[12] = pre-emergence, 480 h, Rate 250 g/ha, pre-emergence, assessed visually 20 DAA, 100%=total damage, 0%=no damage, read-out: Pre-emergence herbicidal activity (percentage phytotoxicity) AVEFA PRE
[13] = post-emergence, 360 h, Rate 250 g/ha, post-emergence, assessed visually 15 DAA, 100%=total damage, 0%=no damage, read-out: Post-emergence herbicidal activity (percentage phytotoxicity) ECHCG POST
[14] = pre-emergence, 480 h, Rate 250 g/ha, pre-emergence, assessed visually 20 DAA, 100%=total damage, 0%=no damage, read-out: Pre-emergence herbicidal activity (percentage phytotoxicity) ECHCG PRE
[15] = post-emergence, 360 h, Rate 250 g/ha, post-emergence, assessed visually 15 DAA, 100%=total damage, 0%=no damage, read-out: Post-emergence herbicidal activity (percentage phytotoxicity) ALOMY POST
[16] = pre-emergence, 480 h, Rate 250 g/ha, pre-emergence, assessed visually 20 DAA, 100%=total damage, 0%=no damage, read-out: Pre-emergence herbicidal activity (percentage phytotoxicity) ALOMY PRE
[17] = post-emergence, 360 h, Rate 250 g/ha, post-emergence, assessed visually 15 DAA, 100%=total damage, 0%=no damage, read-out: Post-emergence herbicidal activity (percentage phytotoxicity) LOLPE POST
[18] = pre-emergence, 480 h, Rate 250 g/ha, pre-emergence, assessed visually 20 DAA, 100%=total damage, 0%=no damage, read-out: Pre-emergence herbicidal activity (percentage phytotoxicity) LOLPE PRE

Row | SMILES | pest or weed control at 250 g/ha (Avena fatua (AVEFA); [3]) | pest or weed control at 250 g/ha (Avena fatua (AVEFA); [4]) | pest or weed control at 250 g/ha [1, 5] | pest or weed control at 250 g/ha [1, 6] | pest or weed control at 250 g/ha [2, 7] | pest or weed control at 250 g/ha [2, 8] | pest or weed control at 250 g/ha (Lolium perenne (LOLPE); [9]) | pest or weed control at 250 g/ha (Lolium perenne (LOLPE); [10]) | pest or weed control at 250 g/ha (Avena fatua (AVEFA); [11]) | pest or weed control at 250 g/ha (Avena fatua (AVEFA); [12]) | pest or weed control at 250 g/ha [1, 13] | pest or weed control at 250 g/ha [1, 14] | pest or weed control at 250 g/ha [2, 15] | pest or weed control at 250 g/ha [2, 16] | pest or weed control at 250 g/ha (Lolium perenne (LOLPE); [17]) | pest or weed control at 250 g/ha (Lolium perenne (LOLPE); [18]) | further results
1 | CCNC(=O)CC1CC(=O)C(c2c(C)cc(-c3ncc(F)cc3F)cc2C)C1=O (stereo not shown) [Compound B201] | 100% | 100% | 100% | 100% | 100% | 100% | 100% | 100% | – | – | – | – | – | – | – | – | –
2 | C=CCOCC(C)(C)NC(=O)CC1CC(=O)C(c2c(C)cc(C#CC)cc2C)C1=O (stereo not shown) [Compound A64] | – | – | – | – | – | – | – | – | 90% | 70% | 100% | 100% | 90% | 70% | 70% | 80% | –
3 | Cc1cnc(CNC(=O)CC2CC(=O)C(c3c(C)cc(-c4ncc(Cl)cc4F)cc3C)C2=O)cn1 (stereo not shown) [Compound A152] | – | – | – | – | – | – | – | – | 100% | 100% | 90% | 100% | 90% | 70% | 100% | 90% | –
4 | Cc1cc(-c2ncc(C#N)cn2)cc(C)c1C1C(=O)CC(CC(=O)NCc2cccc(Cl)c2)C1=O (stereo not shown) [Compound B284] | 100% | 70% | 100% | 100% | 100% | 100% | 100% | 90% | – | – | – | – | – | – | – | – | –
5 | Cc1cc(Br)cc(C)c1C1C(=O)CC(CC(=O)NCc2cccc(F)c2)C1=O (stereo not shown) [Compound B130] | – | – | – | – | – | – | – | – | – | – | – | – | – | – | – | – | pest or weed control at 250 g/ha (Avena fatua (AVEFA); post-emergence, 360 h, 250 g/ha, post-emergence, 15 DAA, visual assessment (100%=total damage, 0%=no damage), read-out: Post-emergence herbicidal activity (percentage phytotoxicity) AVEFA POST): 90%; pest or weed control at 250 g/ha (Avena fatua (AVEFA); pre-emergence, 480 h, 250 g/ha, pre-emergence, 20 DAA, visual assessment (100%=total damage, 0%=no damage), read-out: Pre-emergence herbicidal activity (percentage phytotoxicity) AVEFA PRE): 40%; pest or weed control at 250 g/ha ([1]; post-emergence, 360 h, 250 g/ha, post-emergence, 15 DAA, visual assessment (100%=total damage, 0%=no damage), read-out: Post-emergence herbicidal activity (percentage phytotoxicity) ECHCG POST): 90%; pest or weed control at 250 g/ha ([1]; pre-emergence, 480 h, 250 g/ha, pre-emergence, 20 DAA, visual assessment (100%=total damage, 0%=no damage), read-out: Pre-emergence herbicidal activity (percentage phytotoxicity) ECHCG PRE): 70%; pest or weed control at 250 g/ha ([2]; post-emergence, 360 h, 250 g/ha, post-emergence, 15 DAA, visual assessment (100%=total damage, 0%=no damage), read-out: Post-emergence herbicidal activity (percentage phytotoxicity) ALOMY POST): 90%; pest or weed control at 250 g/ha ([2]; pre-emergence, 480 h, 250 g/ha, pre-emergence, 20 DAA, visual assessment (100%=total damage, 0%=no damage), read-out: Pre-emergence herbicidal activity (percentage phytotoxicity) ALOMY PRE): 80%; pest or weed control at 250 g/ha (Lolium perenne (LOLPE); post-emergence, 360 h, 250 g/ha, post-emergence, 15 DAA, visual assessment (100%=total damage, 0%=no damage), read-out: Post-emergence herbicidal activity (percentage phytotoxicity) LOLPE POST): 100%; pest or weed control at 250 g/ha (Lolium perenne (LOLPE); pre-emergence, 480 h, 250 g/ha, pre-emergence, 20 DAA, visual assessment (100%=total damage, 0%=no damage), read-out: Pre-emergence herbicidal activity (percentage phytotoxicity) LOLPE PRE): 80%
